Each block holds one sequence with its values, some of them ahead of it.
Biological target: T1, MAL^TIR (Homo sapiens, UniProt P58753)
T1 construct: MAL (residues 79–221); 6xHis; made in house; host or cells: E. coli BL21 (DE3)
Experiment: T‐Surf phage library (P8 and P3) selection against MAL^TIR, four rounds, NGS read counts
Type: binding
Conditions: for P8_MAL Rank (after) / P8_MAL Rank (before): P8 library; for P3_MAL Rank (after) / P3_MAL Rank (before): P3 library; for Population: 4th round of selection against MAL TIR, share of NGS reads
Summary of the method: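 Read counts come from NGS of phage pools enriched over four selection rounds on the plate‐coated TIR domain (5 µg mL^−1). Each round: 1 h phage binding at room temperature after 0.2% BSA blocking, Tween washes, acid elution, amplification in E. coli TG1 with M13KO7 helper.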

[1] = 4R selection against MAL, rank after grouping
[2] = 4R selection against MAL, rank before grouping
[3] = P8_MAL: rank by count after grouping
[4] = P8_MAL: rank by count before grouping
[5] = selection against MAL, rank after grouping
[6] = selection against MAL, rank before grouping
[7] = selection against MAL TIR, rank by count after grouping
[8] = selection against MAL TIR, rank by count before grouping
[9] = selection against MAL, rank by count after grouping
[10] = selection against MAL, rank by count before grouping
[11] = P3_MAL pool: P3 T-Surf phage library
[12] = P3_MAL: rank by count after grouping
[13] = P3_MAL: rank by count before grouping

T1 sequence (P58753 79-221): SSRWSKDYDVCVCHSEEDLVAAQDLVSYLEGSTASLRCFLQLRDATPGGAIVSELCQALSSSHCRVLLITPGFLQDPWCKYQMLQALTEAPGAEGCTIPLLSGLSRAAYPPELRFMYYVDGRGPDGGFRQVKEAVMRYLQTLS

- P8_MAL Rank (after) [1]: 628
- P8_MAL Rank (before) [2]: 1838
Sequence: AFLYTFLINLPHTNNF

- Rank (after) [3]: 408
- Rank (before) [4]: 1766
Sequence: AFLWTQLKNVLGNPTF

- P8_MAL Rank (after) [5]: 507
- P8_MAL Rank (before) [6]: 2144
Sequence: LFLWECLKQLLRSDGR

- P8_MAL Rank (after) [1]: 664
- P8_MAL Rank (before) [2]: 1452
Sequence: SFLGHLYNALVQADIH

- P3_MAL Rank (after) [7]: 263
- P3_MAL Rank (before) [8]: 3433
Sequence: NHSRNALTAAANLSGW

- P3_MAL Rank (after) [9]: 745
- P3_MAL Rank (before) [10]: 2091
Sequence: LVVQENLKQLLLFGGL

- P3_MAL Rank (after) [1]: 610
- P3_MAL Rank (before) [2]: 3370
Sequence: NQWRNALTAAANLSVC

- Rank (after) [3]: 101
- Rank (before) [4]: 1862
Sequence: AFLYTFLIKLTHPPNF

- Rank (after) [3]: 167
- Rank (before) [4]: 2379
Sequence: QLIQQWMNCTCTSCI

- Population [11]: 0.00639%
- Rank (after) [12]: 107
- Rank (before) [13]: 124
Sequence: NQWRNALTKVANLV

- Rank (after) [3]: 400
- Rank (before) [4]: 2621
Sequence: TFLDRLYNPLVHAGIH

- P3_MAL Rank (after) [9]: 727
- P3_MAL Rank (before) [10]: 2485
Sequence: RLLKWWDSLTQASNI

- P3_MAL Rank (after) [7]: 245
- P3_MAL Rank (before) [8]: 1314
Sequence: WQFHLRLRMHELLQKM

- Population [11]: 0.056%
- Rank (after) [12]: 97
- Rank (before) [13]: 97
Sequence: YFWHALKNALAVNNDV

- P3_MAL Rank (after) [9]: 678
- P3_MAL Rank (before) [10]: 2463
Sequence: RAFSSHLRHHLLAKDQ

- Rank (after) [3]: 410
- Rank (before) [4]: 1876
Sequence: AFLYTFLKNLTHTPTF

- P8_MAL Rank (after) [1]: 599
- P8_MAL Rank (before) [2]: 1916
Sequence: AFRYTFLIILTDPTNF

- P3_MAL Rank (after) [5]: 553
- P3_MAL Rank (before) [6]: 1465
Sequence: YAFTRHLHRYLVQRAA

- P3_MAL Rank (after) [9]: 699
- P3_MAL Rank (before) [10]: 2216
Sequence: LKWGDPYFWSNCVMR

- Rank (after) [3]: 444
- Rank (before) [4]: 2425
Sequence: HFSRIQLKSRLGETSF

- P3_MAL Rank (after) [9]: 736
- P3_MAL Rank (before) [10]: 3610
Sequence: KERPFGAQRAEKWRA

- Rank (after) [3]: 475
- Rank (before) [4]: 2493
Sequence: SLLYDYLRCLGIRAIL

- P3_MAL Rank (after) [7]: 242
- P3_MAL Rank (before) [8]: 3466
Sequence: KRFWERLRYMLPHSSL

- Rank (after) [12]: 390
- Rank (before) [13]: 2406
Sequence: RGFLAICVIICRRKI

- P3_MAL Rank (after) [5]: 486
- P3_MAL Rank (before) [6]: 2815
Sequence: HHNGSYCEALAEHKER

- Rank (after) [12]: 432
- Rank (before) [13]: 1297
Sequence: WHFHLRLRMPDPLQKI

- P3_MAL Rank (after) [9]: 768
- P3_MAL Rank (before) [10]: 2667
Sequence: PNLLTKVLHYLMRTKT

- P8_MAL Rank (after) [7]: 239
- P8_MAL Rank (before) [8]: 2637
Sequence: TLLCHLYNALVQAGIH

- Rank (after) [12]: 398
- Rank (before) [13]: 2188
Sequence: LSGWAFKRGSCAEYEY

- Population (P8_MAL pool: P8 T-Surf phage library): 0.00463%
Sequence: RNFVAYLFQELANKGI

- P8_MAL Rank (after) [7]: 256
- P8_MAL Rank (before) [8]: 1108
Sequence: CFYQRLVSLILHDTKV

- Rank (after) [3]: 185
- Rank (before) [4]: 1757
Sequence: AFLCTFLINLTHNTTF

- P3_MAL Rank (after) [9]: 758
- P3_MAL Rank (before) [10]: 3484
Sequence: KWFLAKLIYALSRNPH

- Rank (after) [3]: 428
- Rank (before) [4]: 2264
Sequence: RNNFICHLYQELYRIG

- Population [11]: 0.00488%
Sequence: NAFTGHLHRYLVQRGV

- P3_MAL Rank (after) [7]: 281
- P3_MAL Rank (before) [8]: 2398
Sequence: RGFLSHMRHPLQAKDH

- P8_MAL Rank (after) [5]: 542
- P8_MAL Rank (before) [6]: 2394
Sequence: HFFWFKLKSILGETSF

- P3_MAL Rank (after) [9]: 697
- P3_MAL Rank (before) [10]: 3474
Sequence: KNVRLARSVRKNGVP

- P3_MAL Rank (after) [5]: 491
- P3_MAL Rank (before) [6]: 3187
Sequence: SSFREDLWRLRERSKQ

- Rank (after) [12]: 138
- Rank (before) [13]: 516
Sequence: YALPAICIVIWCSVA

- Rank (after) [3]: 168
- Rank (before) [4]: 1429
Sequence: WLYERLVSLSLRDTKV

- P8_MAL Rank (after) [9]: 697
- P8_MAL Rank (before) [10]: 2542
Sequence: TFFSQQLNTVVHTAIL

- P3_MAL Rank (after) [7]: 287
- P3_MAL Rank (before) [8]: 3276
Sequence: NAFTGNLHRYLVQRGV

- P8_MAL Rank (after) [5]: 568
- P8_MAL Rank (before) [6]: 1742
Sequence: AFFGEQLVTGLAKRSS

- Population [11]: 0.00413%
Sequence: YAFTGHLHRSLVQRGV

- P8_MAL Rank (after) [7]: 268
- P8_MAL Rank (before) [8]: 1461
Sequence: YFLHFLLFRRPENAYM
